According to PubChem BioAssay AID1259407 (Chemical Carcinogenesis Research Information System (CCRIS), 2018):
The source made the active and inactive calls. How the calls were made is not given here.

System: CCRIS mutagenicity, Ames/micronucleus/aberration tests
Assay: CCRIS mutagenicity studies
[1] = Test System: AMES SALMONELLA TYPHIMURIUM, Strain/Indicator: TA98, Metabolic Activation: NONE, Method: PREINCUBATION
[2] = Test System: AMES SALMONELLA TYPHIMURIUM, Strain/Indicator: TA98, Metabolic Activation: RAT, LIVER, S-9, AROCLOR 1254, Method: PREINCUBATION
[3] = Test System: AMES SALMONELLA TYPHIMURIUM, Strain/Indicator: TA100, Metabolic Activation: NONE, Method: PREINCUBATION
[4] = Test System: AMES SALMONELLA TYPHIMURIUM, Strain/Indicator: TA100, Metabolic Activation: RAT, LIVER, S-9, AROCLOR 1254, Method: PREINCUBATION
[5] = Test System: AMES SALMONELLA TYPHIMURIUM, Strain/Indicator: TA1535, Metabolic Activation: NONE, Method: PREINCUBATION
[6] = Test System: AMES SALMONELLA TYPHIMURIUM, Strain/Indicator: TA1537, Metabolic Activation: NONE, Method: PREINCUBATION

## CN(C)[C@@H]1C(=O)C(C(N)=O)=C(O)[C@@]2(O)C(=O)C3=C(O)c4c(O)cccc4[C@@](C)(O)[C@H]3[C@H](O)[C@@H]12
End Point: AMES SALMONELLA TYPHIMURIUM, Test System: TA98, Metabolic Activation: NONE, Method: STANDARD PLATE
  mutagenic call: inactive; negative
End Point: AMES SALMONELLA TYPHIMURIUM, Test System: TA100, Metabolic Activation: NONE, Method: STANDARD PLATE
  mutagenic call: inactive; negative
End Point: IN VITRO CHROMOSOMAL ABERRATIONS, Test System: CHO CELLS, Metabolic Activation: NONE
  mutagenic call: inactive; negative
End Point: IN VITRO CHROMOSOMAL ABERRATIONS, Test System: CHO CELLS, Metabolic Activation: RAT, LIVER, S-9, AROCLOR 1254
  mutagenic call: inactive; negative
Test System: AMES SALMONELLA TYPHIMURIUM, Strain/Indicator: TA98, Metabolic Activation: HAMSTER, LIVER, S-9, AROCLOR 1254, Method: PREINCUBATION
  mutagenic call: inactive; negative
[1]
  mutagenic call: inactive; negative
[2]
  mutagenic call: inactive; negative
Test System: AMES SALMONELLA TYPHIMURIUM, Strain/Indicator: TA100, Metabolic Activation: HAMSTER, LIVER, S-9, AROCLOR 1254, Method: PREINCUBATION
  mutagenic call: inactive; negative
[3]
  mutagenic call: inactive; negative
[4]
  mutagenic call: inactive; negative
Test System: AMES SALMONELLA TYPHIMURIUM, Strain/Indicator: TA1535, Metabolic Activation: HAMSTER, LIVER, S-9, AROCLOR 1254, Method: PREINCUBATION
  mutagenic call: inactive; negative
[5]
  mutagenic call: inactive; negative
Test System: AMES SALMONELLA TYPHIMURIUM, Strain/Indicator: TA1535, Metabolic Activation: RAT, LIVER, S-9, AROCLOR 1254, Method: PREINCUBATION
  mutagenic call: inactive; negative
Test System: AMES SALMONELLA TYPHIMURIUM, Strain/Indicator: TA1537, Metabolic Activation: HAMSTER, LIVER, S-9, AROCLOR 1254, Method: PREINCUBATION
  mutagenic call: inactive; negative
[6]
  mutagenic call: inactive; negative
Test System: AMES SALMONELLA TYPHIMURIUM, Strain/Indicator: TA1537, Metabolic Activation: RAT, LIVER, S-9, AROCLOR 1254, Method: PREINCUBATION
  mutagenic call: inactive; negative
Test System: MOUSE LYMPHOMA, Strain/Indicator: L5178Y (TK+/TK-), Metabolic Activation: RAT, LIVER, S-9, AROCLOR 1254, Method: SUSPENSION/PLATE
  mutagenic call: active; positive

## CC(=O)c1cc(NC(N)=O)ccc1OCC(O)CNC(C)(C)C (stereo not given)
[1]
  mutagenic call: inactive; negative
Test System: AMES SALMONELLA TYPHIMURIUM, Strain/Indicator: TA98, Metabolic Activation: RAT, LIVER, S-9, AROCLOR 1254 (10 OR 50 µL/PLATE), Method: PREINCUBATION
  mutagenic call: inactive; negative
[3]
  mutagenic call: inactive; negative
Test System: AMES SALMONELLA TYPHIMURIUM, Strain/Indicator: TA100, Metabolic Activation: RAT, LIVER, S-9, AROCLOR 1254 (10 OR 50 µL/PLATE ), Method: PREINCUBATION
  mutagenic call: active; positive
[5]
  mutagenic call: inactive; negative
Test System: AMES SALMONELLA TYPHIMURIUM, Strain/Indicator: TA1535, Metabolic Activation: RAT, LIVER, S-9, AROCLOR 1254 (10 OR 50 µL/PLATE), Method: PREINCUBATION
  mutagenic call: active; positive
[6]
  mutagenic call: inactive; negative
Test System: AMES SALMONELLA TYPHIMURIUM, Strain/Indicator: TA1537, Metabolic Activation: RAT, LIVER, S-9, AROCLOR 1254 (10 OR 50 µL/PLATE), Method: PREINCUBATION
  mutagenic call: inactive; negative
Test System: E. COLI, Strain/Indicator: WP2 UVRA, Metabolic Activation: NONE, Method: PREINCUBATION
  mutagenic call: inactive; negative
Test System: E. COLI, Strain/Indicator: WP2 UVRA, Metabolic Activation: RAT, LIVER, S-9, AROCLOR 1254 (10 OR 50 µL/PLATE), Method: PREINCUBATION
  mutagenic call: inactive; negative

## C/C=C1/C[C@@H](C)[C@@](C)(O)C(=O)OCC2=CCN3CC[C@@H](OC1=O)[C@@H]23
Test System: AMES SALMONELLA TYPHIMURIUM, Strain/Indicator: TA100, Metabolic Activation: HAMSTER, LIVER, S-9, PCB, Method: PREINCUBATION
  mutagenic call: inactive; negative
Test System: AMES SALMONELLA TYPHIMURIUM, Strain/Indicator: TA100, Metabolic Activation: RAT, LIVER, S-9, PCB, Method: PREINCUBATION
  mutagenic call: inactive; negative
Test System: AMES SALMONELLA TYPHIMURIUM, Strain/Indicator: TA100, Metabolic Activation: RAT, LIVER, S-9, SODIUM PHENOBARBITAL AND BETA-NAPHTHOFLAVONE, Method: PREINCUBATION
  mutagenic call: inactive; negative
Test System: UDS RAT HEPATOCYTES, Strain/Indicator: THY INCORP, Metabolic Activation: NONE, Method: AUTORADIOGRAPHY
  mutagenic call: active; positive

## N#[N+]c1cnc([O-])[nH]c1=O
[1]
  mutagenic call: active; positive
[2]
  mutagenic call: active; positive
[3]
  mutagenic call: active; positive
[4]
  mutagenic call: active; positive
